Laboratory results: the supplement of paper PMC13380429

Experiments:
Details in all cases: 72 h
[1] = test system: HepG2; assay: cell viability relative to DMSO; higher = less toxic
[2] = test system: Calu-3; assay: as above
[3] = test system: Vero E6; assay: as above
[4] = test system: U2OS; assay: as above
[5] = test system: Caco-2; assay: as above
[6] = test system: HepG2; assay: relative viability EC50 (midpoint between 100% and the lowest measured viability); higher = less toxic
[7] = test system: Calu-3; assay: as above
[8] = test system: Vero E6; assay: as above
[9] = test system: U2OS; assay: as above
[10] = test system: Caco-2; assay: as above
[11] = test system: HepG2; assay: drug sensitivity score (DSS) for viability; higher = more toxic; extreme values may be limits of the assay
[12] = test system: Calu-3; assay: as above
[13] = test system: Vero E6; assay: as above
[14] = test system: U2OS; assay: as above
[15] = test system: Caco-2; assay: as above

| Compound | cell viability ([1]; 1 nM) [%] | cell viability ([1]; 10 nM) [%] | cell viability ([1]; 100 nM) [%] | cell viability ([1]; 1000 nM) [%] | cell viability ([1]; 10000 nM) [%] | cell viability ([2]; 1 nM) [%] | cell viability ([2]; 10 nM) [%] | cell viability ([2]; 100 nM) [%] | cell viability ([2]; 1000 nM) [%] | cell viability ([2]; 10000 nM) [%] | cell viability ([3]; 1 nM) [%] | cell viability ([3]; 10 nM) [%] | cell viability ([3]; 100 nM) [%] | cell viability ([3]; 1000 nM) [%] | cell viability ([3]; 10000 nM) [%] | cell viability ([4]; 1 nM) [%] | cell viability ([4]; 10 nM) [%] | cell viability ([4]; 100 nM) [%] | cell viability ([4]; 1000 nM) [%] | cell viability ([4]; 10000 nM) [%] | cell viability ([5]; 1 nM) [%] | cell viability ([5]; 10 nM) [%] | cell viability ([5]; 100 nM) [%] | cell viability ([5]; 1000 nM) [%] | cell viability ([5]; 10000 nM) [%] | relative viability EC50 [6] [µM] | relative viability EC50 [7] [µM] | relative viability EC50 [8] [µM] | relative viability EC50 [9] [µM] | relative viability EC50 [10] [µM] | drug sensitivity score [11] | drug sensitivity score [12] | drug sensitivity score [13] | drug sensitivity score [14] | drug sensitivity score [15] |
| --- | --- | --- | --- | --- | --- | --- | --- | --- | --- | --- | --- | --- | --- | --- | --- | --- | --- | --- | --- | --- | --- | --- | --- | --- | --- | --- | --- | --- | --- | --- | --- | --- | --- | --- | --- |
| CC(Cc1cccc(C(F)(F)F)c1)NCCOC(=O)c1ccccc1 (stereo not given) [benfluorex] | 86 | 96.6 | 97.8 | 99.4 | 88.4 | 97.8 | 94.5 | 100 | 96.4 | 104 | 101 | 107 | 94.2 | 100 | 96.3 | 98.8 | 102 | 105 | 96.8 | 100 | 103 | 95.9 | 103 | 107 | 97.6 | > 10 | > 10 | > 10 | > 10 | > 10 | 0 | 0 | 0 | 0 | 0 |
| C=C(c1ccc(C(=O)O)cc1)c1cc2c(cc1C)C(C)(C)CCC2(C)C [bexarotene] | 94.9 | 96.8 | 107 | 99.7 | 112 | 92.5 | 95.8 | 102 | 96.7 | 103 | 100 | 102 | 96.6 | 94.3 | 98 | 94 | 97.9 | 102 | 95 | 92.7 | 106 | 90.1 | 95.2 | 86.4 | 86.3 | > 10 | > 10 | > 10 | > 10 | > 10 | 0 | 0 | 0 | 0 | 0.9 |
| Oc1c(Cl)cc(Cl)cc1Sc1cc(Cl)cc(Cl)c1O [bithionol] | 101 | 89.3 | 93 | 83.1 | 86.3 | 92.6 | 95.7 | 102 | 97.3 | 111 | 97.3 | 107 | 89.9 | 94.8 | 96.4 | 103 | 93.8 | 104 | 98.6 | 104 | 104 | 88.5 | 99 | 86 | 89.2 | > 10 | > 10 | > 10 | > 10 | > 10 | 1.7 | 0 | 0 | 0 | 0.4 |
| Cc1cc2c(OCC(CNC(C)(C)C)OC(=O)c3ccccc3)cccc2[nH]1 (stereo not given) [bopindolol] | 94 | 100 | 101 | 96.8 | 95.8 | 101 | 102 | 108 | 103 | 92 | 101 | 91.6 | 95.9 | 98.5 | 98.1 | 92.7 | 101 | 93 | 110 | 90.4 | 93.7 | 102 | 95.4 | 102 | 91.7 | > 10 | > 10 | > 10 | > 10 | > 10 | 0 | 0 | 0 | 0 | 0 |
| CC(=O)OCC1=C(C(=O)O)N2C(=O)[C@@H](NC(=O)CS/C(=N/C(C)C)NC(C)C)[C@H]2SC1 [cefathiamidine] | 94.6 | 89.3 | 96.8 | 98.1 | 105 | 97.3 | 107 | 107 | 108 | 102 | 99.7 | 101 | 95.1 | 102 | 109 | 94.3 | 94.3 | 97.9 | 98.8 | 102 | 97.9 | 96.5 | 113 | 107 | 96.6 | > 10 | > 10 | > 10 | > 10 | > 10 | 0 | 0 | 0 | 0 | 0 |
| Oc1c(Cl)cc(Cl)c2cccnc12 [chloroxine] | 75.3 | 89.9 | 92.2 | 91.6 | 76 | 93.9 | 103 | 91.9 | 100 | 84.2 | 100 | 105 | 96.9 | 93.5 | 96.7 | 102 | 103 | 96.7 | 101 | 94.4 | 98.9 | 102 | 96.6 | 91.4 | 85.3 | > 10 | > 10 | > 10 | > 10 | > 10 | 0 | 0.3 | 0 | 0 | 0.5 |
| COc1ccc(/C=C\c2cc(OC)c(OC)c(OC)c2)cc1O [combretastatin-A-4] | 99.6 | 99.8 | 45.2 | 37.9 | 37.3 | 100 | 107 | 85.8 | 47.2 | 34.5 | 97.1 | 63.9 | 22.5 | 22.8 | 25.1 | 94.5 | 47.4 | 22.3 | 23.6 | 22.2 | 93.5 | 76.9 | 52.8 | 40.3 | 43.9 | 0.0466 | 0.303 | 0.0107 | 0.006 | 0.0175 | 18.3 | 11.5 | 28.4 | 30.8 | 19.1 |
